The numbers were not newly measured in patent US20090196935A1, “Pharmaceutical Capsules Comprising Extended Release Dipyridamole Pellets” (priority 2008, published 2009), which cites them from elsewhere.

SMILES strings stand for the structures.

The conditions of series [1]: in vivo.
Test in series [2]: not given
The source holds these as a separate data set.

For orientation: pKa means the negative logarithm of the acid dissociation constant. On to `OCCN(CCO)c1nc(N2CCCCC2)c2nc(N(CCO)CCO)nc(N3CCCCC3)c2n1` [Dipyridamole, 2,6-bis-(diethanolamino)-4,8-dipiperidino-(5,4-d)-pyrimidine], for which the biological half-life entry in series [1] is listed as “less than one hour”. Moreover, where the note is “acidic mediums with a pH below 4”, the “solubility in acidic mediums” value is listed as “soluble”. Further, the “solubility in dilute acids” value (dilute acids) is on record as “soluble”. Further, under “water”, the solubility in water result is on record as “practically insoluble”. Under “water at a pH greater than 4”, the “solubility in water at a pH greater than 4” value was “practically insoluble”. Moreover, the solubility result (weak base, medium not stated) is recorded as “poor solubility”. Besides, the pKa in series [2] is 6.1.
